# “Also recorded” adds a separate entry of the source.
# Assays:
# [1] = test system: receptors in the heart vasculature; experiment: Binding of homing peptides to receptors in heart vasculature versus other organs; set-up: species or system mammal; conditions: for binding to BDNF receptor(s) in the vasculature of older hearts: usually trkB, more commonly truncated trkB; for binding to receptors on other organs (than heart, or heart and brain): organ selectivity
# myocardial infarction = experiment: Intramyocardial TNFα followed by coronary occlusion: myocardial necrosis, apoptosis, mortality; assay type: in vivo, F344 rats
# Method: (§1) FIG. 5. Aging-associated alterations in TNFα cardioprotection. (A) Representative immunostaining for PDGF-B in rat hearts injected with TNFα or PBS vehicle 24 h prior to sacrifice. (B) Quantification of PDGF-B density in the injected hearts (n=3, each group). (C) Representative cardiac histology after coronary occlusion: Mason's trichrome staining for myocardial necrosis (14 day post-coronary occlusion) in 4- and 24-month old rat hears treated with PBS (4- and 24-month old, n=4 and 10, respectively) and TNFα (4-month old, n=4); and (D) tunnel staining for apoptosis (DAB) with hematoxylin counter stain (2 day post-coronary occlusion) in 24-month old hearts treated with TNFα (n=10; 80% mortality vs. PBS 0%; p<0.05). (E) Quantification of myocardial necrosis in rat hearts 14 day post-coronary occlusion.
# (§2) To examine the age-dependent effects of TNFα PDGF-B expression and protection from myocardial necrosis, sets of 4- and 24-month old F344 rats received intramyocardial injections of growth factor.
# [2] = test system: cardiac microvascular endothelial cells (CMECs); experiment: PDGF-B induction (RT-PCR) after TNFα treatment of cultured CMECs; assay type: cell-based, F344 rats; conditions: 4-month old rat CMECs, TNFα 30 ng/ml, 3 hr
# From the text: FIG. 4. Aging-associated alterations in cardiac microvascular TNFα receptor pathways. (A) Representative immunostaining for TNF receptor 1 and 2 in the subepicardium and subendocardium of 3- and 18-month old murine hearts. (B) TNF receptor 1 and 2 densities in the subendocardium of 3- and 18-month old murine hearts (n=3, each). (C) RT-PCR for PDGF-B induction after TNFα treatment of 4- and 24-month old rat CMECs.
# The functional significance of the changes in TNF receptor in the aging cardiac microvasculature was examined in vitro. Cardiac microvascular endothelial cells (CMECS) of 4 and 24-month old F344 rats were isolated and cultured. Briefly, the hearts were removed and minced in endothelial cell medium (DMEM containing 20% FBS, 1% endothelial cell growth factor, 1% endothelial cell growth supplement, 1% BME, 10^−4% heparin and 1% penicillin [10,000 I.U./ml]/streptomycin [10,000 μg/ml]), and digested with medium containing 0.2% collagenase and 0.005% Dnase, and 5% FBS for 45 minutes with subsequent endothelial cells isolation by PECAM-mediated magnetic particle collection (Dynabeads). The resultant CMECs (Dil-LDL uptake>95%) were cultured for 2 passages and seeded into 12-well culture dish (10^5 cells/well) and grown to confluence. Medium was changed to serum free-DMEM for 1 hr and then to medium containing 2% FBS+TNFα (30 ng/ml) for 3 hr.
# PDGF-B = experiment: Intramyocardial injection of TNFα: PDGF-B immunostaining in hearts; assay type: in vivo, F344 rats; conditions: 100 ng intramyocardial, 24 h
# Method: as §1, §2
substance,measurement,setting,value
ARRGQAV,binding to BDNF receptor(s) in the vasculature of older hearts,[1],bind
same,"binding to receptors on other organs (than heart, or heart and brain)",[1],do not bind significantly
GRRFIRV,binding to BDNF receptor(s) in the vasculature of older hearts,[1],bind
same,"binding to receptors on other organs (than heart, or heart and brain)",[1],do not bind significantly
QAQGQLV,"binding to receptors on other organs (than heart, or heart and brain)",[1],does not bind significantly
same,binding capacity to TNF receptor(s) in vasculature of young versus older hearts,[1]; young vs older hearts,more binding capacity
"TNFα: tumor necrosis factor α, growth factor injected intramyocardially or added to CMECs (NPQAEGQLQV)",extent of myocardial infarction in young hearts,"myocardial infarction; 4-month old rats, 14 day post-coronary occlusion",markedly reduced
same,apoptosis in older hearts,"myocardial infarction; 24-month old rats, anterior left ventricular wall, 2 day post-coronary occlusion",extensive apoptosis; also recorded: induced apoptosis
same,mortality in older rats,"myocardial infarction; 24-month old rats, within 72 h of coronary occlusion",80%
same,PDGF-B expression in CMECs from young hearts,[2],induced
same,PDGF-B in young hearts in vivo,PDGF-B; 4-month old rats,specifically induced increase
same,PDGF-B in aging hearts in vivo,PDGF-B; 24-month old rats,minimal effect

# Reference: patent US7910694B2, “Homing peptides to receptors of heart vasculature” (Cornell Research Foundation, Inc., priority 2002, dated 2011)
